Laboratory results published in paper PMC11247627, “Evaluation of Antibacterial Functionalized Dihydropyrimidine Photoaffinity Probes Toward Mechanism of Action Studies” (ACS Medicinal Chemistry Letters, 2024).
In brackets after ≈: the same amount, converted by molar mass. Several values for one entry are separate records, joined by “and”; a condition that tells them apart may be missing. Equal values may be shown once. Read-outs that look alike come from different tables or passages of the source.

Experiments:
Type in all cases: cell-based
[1] = tested on: red blood cells (defibrinated sheep blood); test: Hemolysis assay (red blood cell lysis); details: concentration producing >20% hemolysis of red blood cells, 1 h, 37 C
Protocol: 1260 1.5 mL of mechanically defibrinated sheep blood (Hemostat Labs: DSB100) was placed in a microcentrifuge tube and was centrifuged at 10,000 rpm for ten minutes. Following the removal of the supernatant, the cells were resuspended in 1 mL of phosphate-buffered saline (PBS). This process was repeated two more times. The final suspension was diluted ten-fold with PBS and was aliquoted into microcentrifuge tubes containing the compounds which were previously serial diluted in PBS. TritonX 1265 (1% by volume) served as a positive control, while sterile PBS served as a negative control. All samples were incubated at 37 °C and shaken at 200 rpm for 1 hour. After the 1 hour, the samples were centrifuged at 10,000 rpm for 5 minutes and the absorbance of the supernatant was measured via UV spectroscopy at a 540 nm wavelength.

[2] = tested on: Staphylococcus aureus ATCC 43300 (MRSA); test: Antibacterial broth microdilution assay (MIC), MRSA ATCC 43300; details: 18 h; for MIC: Staphylococcus aureus, read-out: MIC ATCC 43300
Protocol: (§1) These 24 DHP analogues were then screened for inhibition of Staphylococcus aureus growth using microdilution assays. Growth inhibition was examined in methicillin-sensitive S. aureus (ATCC 12600) and two strains of MRSA (ATCC 33591 and ATCC 43300). Antibiotic controls were included in the screen, including carbenicillin, erythromycin, gentamycin, trimethoprim, and vancomycin, and minimum inhibitory concentrations (MICs) were determined for each compound, which were defined as the concentration required to inhibit >95% of bacterial growth (Table 1).
(§2) Antibacterial Microdilution Assay (MIC Determination)
(§3) 1240 The MIC determination assays were performed in a BSL-2 laboratory with appropriate security and biosafety measures. The MICs were determined using a broth microdilution assay closely following the guidelines of the Clinical and Laboratories Standards Institute (CLSI). MICs were determined in duplicate for two biological replicates using 2-fold serial dilutions of test compounds or commercial antibiotics in cation-adjusted Mueller-Hinton broth. The central 60 wells of 96-well plates were 1245 prepared with the compound of interest at the indicated concentration, where 2 µL of the compound in DMSO were added prior to the addition of the culture. Overnight cultures of the different Staphylococcus aureus strains were diluted to provide an initial inoculum of approximately 5 X 10 5 CFU/mL that was delivered to each well in 198 µL of culture (final DMSO concentration of ~1%). Initial inoculum concentrations were verified by plating to count CFU/mL. Each plate was equipped with 1250 experimental controls for full growth (6 wells) and full growth inhibition (6 wells), and all control wells were in the presence of 1% DMSO. The outer 36 wells were filled with 200 µL of culture each to prevent growth effects on the interior 60 wells. The plates were incubated at 37 °C for 18 hours, at which time they were removed from the incubator and were allowed to equilibrate to room temperature for 30 minutes. Absorbance of each well at 600 nm was then read using a microplate reader to 1255 determine the MIC, and visual confirmation of growth inhibition was also performed. If variation was seen in the experimental values, the highest value of two independent trials was listed.

Staphylococcus aureus = test: S. aureus growth inhibition (all three strains or strain not specified); details: for MIC: Staphylococcus aureus, read-out: concentration inhibiting S. aureus growth (MIC); for antibacterial potency of alkynyl esters compared to their ethyl variants: MIC comparison, Table 3
Protocol: as §1, §2, §3

[3] = tested on: Staphylococcus aureus ATCC 12600; test: Antibacterial broth microdilution assay (MIC), methicillin-sensitive S. aureus ATCC 12600; details: Staphylococcus aureus, read-out: MIC ATCC 12600
Protocol: as §1, §2, §3

[4] = MTT cytotoxicity assay, HEK293 viability; details: human, HEK293 cells, 24 h treatment
Protocol: After determining that some of our compounds were quite potent for the inhibition of bacterial growth, we next turned toward assessing broader cytotoxicity trends. […] Further, our previously reported derivatives were also screened for red blood cell (RBC) hemolysis, and the assay indicated a lack of RBC lysis at the highest concentrations tested for all compounds (64 μg/mL).[6] […] This indicates it may have secondary mechanisms of cytotoxicity via nonspecific membrane rupturing activity, albeit, at a much higher concentration than its 2 μg/mL MIC. Next, we examined the compounds’ ability to decrease the viability of an immortalized mammalian cell line (HEK293) using a colorimetric MTT assay.[34] To our surprise, all of the compounds screened produced relatively potent cytotoxicity against this cell line. […] We screened a dihydropyrimidine where the guanidine was substituted with a urea (traditional Biginelli reaction derived), and this compound had no bacterial inhibition but continued to have significant mammalian cytotoxicity, further decoupling the antibacterial activity from mammalian cytotoxicity in these cases. Future studies involving the photoaffinity probes will examine the mechanism by which our compounds exert their growth-inhibiting effects in both bacterial and mammalian cells.
Mammalian cytotoxicity was evaluated using a commercially available MTT Cell proliferation assay 1275 (ATCC 30-1010K; Manassas, VA) following the included protocol. Briefly, Human Embryonic Kidney 293 (HEK-293; ATCC CRL-1353) cells were seeded onto 96 well plates (Nunclon Delta; ThermoFisher 167008; Waltham, MA) coated with Poly-D-Lysine (Thermofisher A3890401) at a density of […] cells per well in 80 µL of Eagle's Minimum Essential Medium (EMEM; ATCC 30-2003) with 10% Fetal Bovine Serum (ATCC 30-2021). Cells were incubated at 37 °C in a 5% CO2 atmosphere and allowed to 1280 adhere overnight, and then treated for 24 h with 20 µL of drugs dissolved in PBS with 0.5% DMSO, at concentrations ranging from 1×10^-4 M to 1×10^-9 M. Following treatment, 10 µL of MTT reagent was added to each well and allowed to incubate at 37 °C for 4 h. Then, 100 μL of detergent reagent was added to all wells, and they were stored at room temperature in the dark for 2 h. Absorbance was then read using a multi-mode spectrophotometer (Spectramax i3X; San Jose, CA) at a wavelength of 570 1285 nm. Raw values were normalized to a 0-100% scale using the maximum and minimum responses. To generate dose-response curves and IC50 values, normalized data were plotted against the log of the drug concentrations and fit to nonlinear curve [log(inhibitor) vs. response – variable slope (four parameters)] using GraphPad Prism version 7.05 (GraphPad Software; San Diego, CA).

[5] = tested on: Staphylococcus aureus ATCC 33591 (MRSA); test: Antibacterial broth microdilution assay (MIC), MRSA ATCC 33591; details: Staphylococcus aureus, 18 h, read-out: MIC ATCC 33591
Protocol: as §1, §2, §3

[6] = amount inhibiting >95% of growth (A600), suffix 'I' = partial growth inhibition at the value, >95% at higher concentrations
[7] = all three S. aureus strains or strain not specified
[8] = ATCC12600, amount inhibiting >95% of growth (A600), 18 h, suffix 'I' = partial growth inhibition at the value, >95% at higher concentrations

Structure (SMILES)	lysis20 [1] [µg/mL]	MIC [2, 6] [µg/mL]	MIC (Staphylococcus aureus; [7]) [µg/mL]	MIC [3, 8] [µg/mL]	IC50 at 24 h [4]	MIC [5, 6] [µg/mL]	MIC ATCC 43300 [2, 6] [µg/mL]	antibacterial potency of alkynyl esters compared to their ethyl variants (Staphylococcus aureus)	MIC [5] [µg/mL]	MIC [2] [µg/mL]	MIC (Staphylococcus aureus) [µg/mL]	MIC ([3]; ATCC12600, 18 h) [µg/mL]
CCOC(=O)C1=C(c2ccccc2)NC(N)=NC1c1ccc(CC(C)C)cc1 (stereo not shown) [7a]	>64	4 (≈ 10.6 µM)	4 (≈ 10.6 µM)	4 (≈ 10.6 µM)	7.9 µM and 2.5 µg/mL							
CCOC(=O)C1=C(c2ccccc2)NC(N)=NC1c1ccccc1OC (stereo not shown) [6s]	>64	> 64		> 64	87 µM and 28 µg/mL	> 64	>64					
C#CCCCOC(=O)C1=C(c2ccccc2)NC(N)=NC1c1cc(Cl)cc(Cl)c1 (stereo not shown) [26f]		4 (≈ 9.34 µM)		4 (≈ 9.34 µM)				2-fold increased potency				
CCOC(=O)C1=C(c2ccccc2)NC(N)=NC1c1cc(Cl)cc(Cl)c1 (stereo not shown) [6j]	>64	8 (≈ 20.5 µM)		8 (≈ 20.5 µM)	11 µM and 3.5 µg/mL							
C#CCCCOC(=O)C1=C(c2ccc(C3(C(F)(F)F)N=N3)cc2)NC(N)=NC1c1ccc(CC(C)C)cc1 (stereo not shown) [26h]		2 (≈ 3.82 µM)	2 (≈ 3.82 µM)	2 (≈ 3.82 µM)				equal potency				
CCOC(=O)C1=C(c2ccccc2)NC(N)=NC1c1cccc(Cl)c1 (stereo not shown) [6i]	>64	32 (≈ 89.9 µM)		32 (≈ 89.9 µM)	18 µM and 5.8 µg/mL	32 (≈ 89.9 µM)						
CCOC(=O)C1=C(CC)NC(N)=NC1c1ccc(CC(C)C)cc1 (stereo not shown) [7c]	>64	4 (≈ 12.1 µM)			11 µM and 3.5 µg/mL	8 (≈ 24.3 µM)						
CCOC(=O)C1=C(c2ccccc2)NC(N)=NC1c1ccc(OC)cc1 (stereo not shown) [6u]	>64	> 64	> 64		14 µM and 4.5 µg/mL	> 64						
CCOC(=O)C1=C(c2cccc(F)c2)NC(N)=NC1c1cc(Cl)cc(Cl)c1 (stereo not shown) [7g]	>64	8 (≈ 19.6 µM)		8 (≈ 19.6 µM)	14 µM and 4.5 µg/mL	8 (≈ 19.6 µM)						
CCOC(=O)C1=C(c2cccc(C)c2)NC(N)=NC1c1cc(Cl)cc(Cl)c1 (stereo not shown) [7i]	>64	8 (≈ 19.8 µM)		8 (≈ 19.8 µM)	16 µM and 5.1 µg/mL	8 (≈ 19.8 µM)						
CN[C@H](CC(C)C)C(=O)N[C@H]1C(=O)N[C@@H](CC(N)=O)C(=O)N[C@H]2C(=O)N[C@H]3C(=O)N[C@H](C(=O)N[C@H](C(=O)O)c4cc(O)cc(O)c4-c4cc3ccc4O)[C@H](O)c3ccc(c(Cl)c3)Oc3cc2cc(c3O[C@@H]2O[C@H](CO)[C@@H](O)[C@H](O)[C@H]2O[C@H]2C[C@](C)(N)[C@H](O)[C@H](C)O2)Oc2ccc(cc2Cl)[C@H]1O [vancomycin, reference compound]									2 (≈ 1.38 µM)	2 (≈ 1.38 µM)	2 (≈ 1.38 µM)	2 (≈ 1.38 µM)
CCOC(=O)C1=C(c2cccc(F)c2)NC(N)=NC1c1ccc(CC(C)C)cc1 (stereo not shown) [7h]	>64	4 (≈ 10.1 µM)		4 (≈ 10.1 µM)	4.4 µM and 1.4 µg/mL	4 (≈ 10.1 µM)						
CCOC(=O)C1=C(c2ccccc2)NC(N)=NC1c1ccc(C(C)C)cc1 (stereo not shown) [6r]	>64	8 (≈ 22 µM)	8 (≈ 22 µM)		9.5 µM and 3.1 µg/mL							
CCOC(=O)CC(=O)c1ccc(C2(C(F)(F)F)N=N2)cc1 [compound 11]		> 64	> 64	> 64								
C#CCCCOC(=O)C1=C(c2ccccc2)NC(N)=NC1c1ccc(C2(C(F)(F)F)N=N2)cc1 (stereo not shown) [26g]		4 (≈ 8.56 µM)		4 (≈ 8.56 µM)				equal potency				
O=Cc1ccc(C2(C(F)(F)F)N=N2)cc1 [compound 25]		> 64	> 64	> 64								
CCOC(=O)C1=C(c2cccc(C(F)(F)F)c2)NC(N)=NC1c1cc(Cl)cc(Cl)c1 (stereo not shown) [7e]	>64	4 (≈ 8.73 µM)		4 (≈ 8.73 µM)	9.9 µM and 3.2 µg/mL	4 (≈ 8.73 µM)						
C#CCCOC(=O)C1=C(c2ccccc2)NC(N)=NC1c1cc(Cl)cc(Cl)c1 (stereo not shown) [26d]		16 (≈ 38.6 µM)		16 (≈ 38.6 µM)				2-fold decreased potency				
